The subject of this experiment is Lymphosarcoma Mecca ip in C3AKF1 mice, survival T/C%. The experiment is described as follows: NCI In Vivo Anticancer Drug Screen. Data for tumor model Lymphosarcoma Mecca (intraperitoneal) in C3AKF1 (CHKRF1) mice. The settings on record: endpoint: survival time, mean or median, higher = longer survival. The procedure:
The antitumor activity of compounds was measured in mice bearing transplantable tumors. Survival or tumor size were measured and the results are expressed as the measurement made in the treated group (T) divided by the measurement made in the vehicle treated control group (C). The tumor model used in this assay is Lymphosarcoma Mecca (intraperitoneal) in C3AKF1 (CHKRF1) mice

The mark [1] stands for this setting: dose: 18.8 mg/kg/injection, schedule: Q01DX010 (ip), vehicle: saline.
Setting [2] is: dose: 37.5 mg/kg/injection, schedule: Q01DX010 (ip), vehicle: saline.
[3] abbreviates: dose: 75.0 mg/kg/injection, schedule: Q01DX010 (ip), vehicle: saline.
Setting [4] is: dose: 1.25 mg/kg/injection, schedule: Q01DX010 (ip), vehicle: saline.
Setting [5] is: dose: 2.5 mg/kg/injection, schedule: Q01DX010 (ip), vehicle: saline.
Setting [6] is: dose: 5.0 mg/kg/injection, schedule: Q01DX010 (ip), vehicle: saline.
[7] abbreviates: dose: 10.0 mg/kg/injection, schedule: Q01DX010 (ip), vehicle: saline.
Where [8] appears, read: dose: 20.0 mg/kg/injection, schedule: Q01DX010 (ip), vehicle: saline.
[9] abbreviates: dose: 25.0 mg/kg/injection, schedule: Q01DX010 (ip), vehicle: saline.
[10] abbreviates: dose: 150.0 mg/kg/injection, schedule: Q01DX010 (ip), vehicle: saline.
Where [11] appears, read: dose: 8.0 mg/kg/injection, schedule: Q01DX010 (ip), vehicle: saline.
[12] abbreviates: dose: 16.0 mg/kg/injection, schedule: Q01DX010 (ip), vehicle: saline.
Setting [13] is: dose: 50.0 mg/kg/injection, schedule: Q01DX010 (ip), vehicle: saline.
The mark [14] stands for this setting: dose: 100.0 mg/kg/injection, schedule: Q01DX010 (ip), vehicle: saline.
The mark [15] stands for this setting: dose: 200.0 mg/kg/injection, schedule: Q01DX010 (ip), vehicle: saline.
Where [16] appears, read: dose: 4.0 mg/kg/injection, schedule: Q01DX010 (ip), vehicle: saline.
Where [17] appears, read: dose: 32.0 mg/kg/injection, schedule: Q01DX010 (ip), vehicle: saline.
Setting [18] is: dose: 31.3 mg/kg/injection, schedule: Q01DX010 (ip), vehicle: saline.
Setting [19] is: dose: 62.5 mg/kg/injection, schedule: Q01DX010 (ip), vehicle: saline.
Where [20] appears, read: dose: 125.0 mg/kg/injection, schedule: Q01DX010 (ip), vehicle: saline.
Where [21] appears, read: dose: 250.0 mg/kg/injection, schedule: Q01DX010 (ip), vehicle: saline.
Setting [22] is: dose: 500.0 mg/kg/injection, schedule: Q01DX010 (ip), vehicle: saline.
[23] abbreviates: dose: 1.0 mg/kg/injection, schedule: Q01DX010 (ip), vehicle: saline.
Setting [24] is: dose: 2.0 mg/kg/injection, schedule: Q01DX010 (ip), vehicle: saline.
Where [25] appears, read: dose: 0.5 mg/kg/injection, schedule: Q01DX010 (ip), vehicle: saline.

Where “and” joins values, the source holds several entries; their conditions need not be identical. Equal entries are not always repeated. Toxic doses and inconclusive results are not listed.

With `CS(=O)(=O)OCCCl`, the T/C reads like this: under setting [1], 100 % of control; under setting [2], 113 % of control; under setting [3], 100 % of control.
Regarding `CC[n+]1c(-c2ccccc2)c2cc(N)ccc2c2ccc(N)cc21`, the T/C under setting [4] was 100 % of control; the T/C under setting [5] is 100 % of control and 120 % of control; the T/C under setting [6] was 100 % of control; the T/C under setting [7] was 105 % of control and 120 % of control; the T/C under setting [8] is 105 % of control.
Regarding `C[C@H]1C(=O)O[C@@H]2CCN3CC=C(COC(=O)[C@](C)(O)[C@@]1(C)O)[C@H]23`, the T/C was 109 % of control and 115 % of control (dose: 3.13 mg/kg/injection, schedule: Q01DX010 (ip), vehicle: saline); 95 % of control and 109 % of control (dose: 6.25 mg/kg/injection, schedule: Q01DX010 (ip), vehicle: saline); 105 % of control and 118 % of control (dose: 12.5 mg/kg/injection, schedule: Q01DX010 (ip), vehicle: saline); 109 % of control and 115 % of control under setting [9].
For the compound `CN(C)c1nc(N(C)C)nc(N(C)C)n1`, the T/C is, setting by setting: under setting [1], 105 % of control; under setting [2], 100 % of control; under setting [3], 100 % of control and 111 % of control; under setting [10], 105 % of control and 111 % of control.
In the case of `O=C(Nc1ccc(C2=NCCN2)cc1)c1cccc(C(=O)Nc2ccc(C3=NCCN3)cc2)c1`, the T/C is 113 % of control under setting [11]; 110 % of control and 205 % of control under setting [12]; 175 % of control (dose: 64.0 mg/kg/injection, schedule: Q01DX010 (ip), vehicle: saline).
In the case of `CN(C)c1ccc(/C=C/c2ccnc3ccccc23)cc1`, the T/C was 100 % of control and 111 % of control under setting [6]; 94 % of control under setting [7]; 94 % of control and 100 % of control under setting [8]; 94 % of control (dose: 40.0 mg/kg/injection, schedule: Q01DX010 (ip), vehicle: saline).
`CSc1ncnc2nc[nH]c12`: the T/C is 109 % of control under setting [9]; 95 % of control and 118 % of control under setting [13]; 95 % of control and 113 % of control under setting [14]; 104 % of control under setting [15].
Consider `CC(CCC(C)OS(C)(=O)=O)OS(C)(=O)=O` (configuration not stated), for which the T/C by setting is: under setting [16], 109 % of control; under setting [11], 100 % of control; under setting [12], 114 % of control; under setting [17], 95 % of control.
Consider `COc1ccc2c(c1OC)C(=O)O[C@@H]2[C@H]1c2c(cc3c(c2OC)OCO3)CCN1C`, for which the T/C was 100 % of control and 105 % of control under setting [18]; 100 % of control and 116 % of control under setting [19]; 100 % of control and 116 % of control under setting [20]; 94 % of control and 100 % of control under setting [21].
`COC(=O)[C@@H]1c2cc3c(c(O)c2[C@@H](OC2OC(C)C(OC)C(C)(OC)C2OC)C[C@]1(C)O)C(=O)c1c(O)cc2c(c1C3=O)O[C@H]1O[C@]2(C)[C@H](O)[C@@H](N(C)C)[C@@H]1O` (some centres not stated): the T/C is 95 % of control and 100 % of control (dose: 125.0 micrograms/kg/injection, schedule: Q01DX010 (ip), vehicle: saline); 110 % of control (dose: 250.0 micrograms/kg/injection, schedule: Q01DX010 (ip), vehicle: saline); 100 % of control and 105 % of control (dose: 500.0 micrograms/kg/injection, schedule: Q01DX010 (ip), vehicle: saline).
On to `CCOC(N)=O`, for which the T/C under setting [20] is 90 % of control and 104 % of control; the T/C under setting [21] is 86 % of control and 95 % of control; the T/C under setting [22] is 95 % of control and 122 % of control.
For `Cc1cc2nc3c(=O)[nH]c(=O)nc-3n(CC(O)C(O)C(O)C(O)CO)c2cc1C` (configuration not stated), the T/C reads like this: under setting [9], 95 % of control; under setting [13], 90 % of control and 95 % of control; under setting [14], 90 % of control and 100 % of control; under setting [15], 90 % of control and 100 % of control.
Take `O=C(O)c1[nH]c(=O)[nH]c(=O)c1F`: the T/C reads like this: under setting [4], 100 % of control; under setting [5], 88 % of control and 122 % of control; under setting [8], 122 % of control.
Consider `Cc1cn(C2OC(CO)C(O)C2O)c(=O)[nH]c1=O` (configuration not stated), for which the T/C under setting [19] was 105 % of control, the T/C under setting [20] is 111 % of control, the T/C under setting [21] was 105 % of control and the T/C under setting [22] was 111 % of control.
In the case of `CS(=O)(=O)OCC(O)C(O)C(O)C(O)COS(C)(=O)=O` (configuration not stated), the T/C runs as follows: under setting [9], 111 % of control; under setting [13], 100 % of control and 111 % of control; under setting [14], 100 % of control and 116 % of control; under setting [15], 100 % of control and 122 % of control; (dose: 400.0 mg/kg/injection, schedule: Q01DX010 (ip), vehicle: saline) 110 % of control.
For the compound `C[C@@H]1C[C@@H]([C@H](O)CC2CC(=O)NC(=O)C2)C(=O)[C@@H](C)C1`, the T/C under setting [6] is 109 % of control; the T/C under setting [7] was 100 % of control and 113 % of control; the T/C under setting [8] is 95 % of control.
With `S=P(N1CCOCC1)(N1CC1)N1CC1`, the T/C is, setting by setting: under setting [5], 88 % of control; under setting [6], 88 % of control; under setting [7], 88 % of control.
Consider `C[C@H](N)C(=O)N[C@@H]1[C@H]2C(=C(O)C[C@@H](O)[C@@H]2O)C(=O)O[C@@H]1C`, for which the T/C runs as follows: under setting [10], 155 % of control; (dose: 300.0 mg/kg/injection, schedule: Q01DX010 (ip), vehicle: saline) 92 % of control; (dose: 600.0 mg/kg/injection, schedule: Q01DX010 (ip), vehicle: saline) 100 % of control and 120 % of control; (dose: 1200.0 mg/kg/injection, schedule: Q01DX010 (ip), vehicle: saline) 155 % of control.
Turning to `O=C(Nc1ccc(C2=NCCCN2)cc1)c1ccc(C(=O)Nc2ccc(C3=NCCCN3)cc2)cc1`, the T/C by setting is: under setting [23], 111 % of control and 116 % of control; under setting [24], 116 % of control and 122 % of control; under setting [11], 150 % of control.
In the case of `NC(=O)n1cccn1`, the T/C by setting is: under setting [9], 90 % of control; under setting [13], 100 % of control; under setting [14], 100 % of control; under setting [15], 100 % of control.
Regarding `COCCCNP(=S)(N1CC1)N1CC1`, the T/C is, setting by setting: under setting [25], 100 % of control; under setting [23], 100 % of control; under setting [24], 100 % of control; under setting [16], 105 % of control.
`CCn1cnc2c(=S)nc[nH]c21`: the T/C was 100 % of control (dose: 15.6 mg/kg/injection, schedule: Q01DX010 (ip), vehicle: saline); 100 % of control under setting [18]; 90 % of control under setting [19]; 100 % of control under setting [20].
In the case of `NC(=O)N(CCCl)N=O`, the T/C runs as follows: under setting [25], 300 % of control; under setting [23], 158 % of control and 230 % of control; under setting [16], 110 % of control.
Regarding `Nc1nc(=S)c2ncn(C3OC(CO)C(O)C3O)c2[nH]1` (configuration not stated), the T/C reads like this: under setting [23], 115 % of control and 120 % of control; under setting [24], 115 % of control; under setting [16], 105 % of control and 115 % of control; under setting [11], 90 % of control and 105 % of control.
In the case of `CN1CC[C@]23c4c5ccc(O)c4O[C@H]2C(=O)CC[C@H]3[C@H]1C5`, the T/C under setting [16] is 88 % of control and 100 % of control; the T/C under setting [11] is 100 % of control and 111 % of control; the T/C under setting [12] was 105 % of control and 111 % of control; the T/C under setting [17] is 100 % of control and 116 % of control.
Turning to `CC/C(=C(/CC)c1ccc(O)cc1)c1ccc(O)cc1`, the T/C (dose: 12.5 mg/kg/injection, schedule: Q01DX010 (sc), vehicle: steriod suspending solution) is 96 % of control and 110 % of control; the T/C (dose: 25.0 mg/kg/injection, schedule: Q01DX010 (sc), vehicle: steriod suspending solution) is 120 % of control; the T/C (dose: 50.0 mg/kg/injection, schedule: Q01DX010 (sc), vehicle: steriod suspending solution) is 88 % of control and 105 % of control; the T/C (dose: 100.0 mg/kg/injection, schedule: Q01DX010 (sc), vehicle: steriod suspending solution) is 92 % of control and 100 % of control.

These data come from PubChem BioAssay AID304 (DTP/NCI, 2004).
